Source: ChEMBL document CHEMBL1148997, “Stereochemical considerations in relation to the pharmacological activity of Pterotaberna alkaloids” (J Nat Prod, 1985)
Activity calls are given as the source filed them. The calls are words filed in the database; no cut-off is given here.

What was measured:
[1] = test system: Ileum; experiment: Inhibition of electrically-induced twitch contraction in guinea pig ileum at 3.4 uM; format: functional, tissue-based; settings: Cavia porcellus
[2] = test system: Ileum; experiment: Inhibition of electrically-induced twitch contraction in guinea pig ileum at 1 ug/ml after 15 mins; format: functional; settings: Cavia porcellus, 0.25 h
[3] = test system: Ileum; experiment: Anticholinergic effect in guinea pig ileum assessed as inhibition of acetylcholine-induced contraction; format: functional
[4] = test system: Ileum; experiment: Antihistaminic effect in guinea pig ileum assessed as inhibition of histamine-induced contraction by Schild plot; format: functional, tissue-based; settings: Cavia porcellus, read-out: pA2 (converted)
[5] = test system: Intestine; experiment: Anticholinergic effect in rat intestine assessed as inhibition of acetylcholine-induced contraction; format: functional, tissue-based; settings: read-out: pA2 (converted)
[6] = test system: Ileum; experiment: Inhibition of electrically-induced twitch contraction in guinea pig ileum at 3.2 uM; format: functional, tissue-based; settings: Cavia porcellus
[7] = test system: Ileum; experiment: Anticholinergic effect in guinea pig ileum assessed as inhibition of acetylcholine-induced contraction at 3.4 uM; format: functional, tissue-based; settings: Cavia porcellus
[8] = test system: Ileum; experiment: Antihistaminic effect in guinea pig ileum assessed as inhibition of histamine-induced contraction at 34 uM; format: functional, tissue-based; settings: Cavia porcellus
[9] = test system: Ileum; experiment: Anticholinergic effect in guinea pig ileum assessed as inhibition of acetylcholine-induced contraction at 1 uM; format: functional, tissue-based; settings: Cavia porcellus
[10] = test system: Ileum; experiment: Inhibition of electrically-induced twitch contraction in guinea pig ileum at 3.4 uM preincubated for 15 mins before addition of naloxone in presence of naloxone; format: functional, tissue-based; settings: Cavia porcellus
[11] = test system: Ileum; experiment: Inhibition of electrically-induced twitch contraction in guinea pig ileum at 1 uM; format: functional, tissue-based; settings: Cavia porcellus
[12] = test system: Ileum; experiment: Antihistaminic effect in guinea pig ileum assessed as inhibition of histamine-induced contraction; format: functional, Cavia porcellus

Q: Which Activity [1] does the source give for C/C=C1/CN(C)C[C@@H]2Cc3c([nH]c4ccccc34)C(=O)C[C@@H]12 here?
A: Active

Q: And the inhibition at 1 µg/mL [2]?
A: 20%

Q: What about the Activity ([3]; Cavia porcellus) of the same compound?
A: inactive

Q: What about the Kb [4] of the same compound?
A: 0.282 µM

Q: For COc1ccc(Cc2nccc3cc(OC)c(OC)cc23)cc1OC [PAPAVERINE], which Kb [5] is on record?
A: 15.8 µM

Q: And the pD2 [3]?
A: 5.08

Q: With C/C=C1/C[N+](C)([O-])C[C@H]2Cc3c([nH]c4ccccc34)C(=O)C[C@@H]12 (stereo partly specified) as the compound, how does the Activity [6] read?
A: inactive

Q: How did the Activity [6] turn out when C/C=C1/CN(C)C[C@H]2C(=O)c3c([nH]c4ccccc34)C(=O)C[C@@H]12 was run?
A: inactive

Q: Which Activity [7] does the source give for C/C=C1/CN(C)C[C@H]2Cc3c([nH]c4ccccc34)C(=O)C[C@@H]12 [METHUENINE] here?
A: Active

Q: What about the Activity [8] of the same compound?
A: Active

Q: And the Activity [1]?
A: Active

Q: What about the Activity [9] of the same compound?
A: Active

Q: And the Activity [10]?
A: Active

Q: And the Activity [11]?
A: Active

Q: And the pD2 [3]?
A: 5.1

Q: And the pD2 [12]?
A: 5.13
